Reference: patent US8895054B2, “Methods for joint lubrication and cartilage wear prevention making use of glycerophospholipids” (Technion Research and Development Foundation Ltd., priority 2006, dated 2014)
Values joined by “and” are separate entries in the source; they are usually repeats but may differ in a detail not shown here. Identical values can stand only once.

Key:
[1] = cited from earlier work; for Phase transition temperature (Tm): Table 1, SO to LD, phospholipid bilayers
[2] = LD phase (above Tm); cited from earlier work
[3] = Partial specific adiabatic compressibility of the lipid bilayer; format: physicochemical
Description: • (i) phospholipid (PL) concentration, using the modified Bartlett assay^37, 38; • (ii) size distribution, for liposomes under 1 μm by dynamic light scattering using an ALV-NIBS High Performance Particle Sizer (Langen, Germany) at a scattering angle of 173°; and for liposomes above 400 nm by light diffraction using a Beckman Coulter LS Particle Size Analyzer 13-320 (Fullerton, Calif.), equipped with polarization intensity differential scattering (PIDS) to provide a dynamic detection range from 40 nm to 2000 μm; • (iii) partial specific adiabatic compressibility, by calculation from the density of the liposome dispersion (using a DMA 5000 density meter, Anton Paar, Graz, Austria) and the velocity of an 5 MHz ultrasonic wave traveling through it (using a UCC-12 ultrasonic velocimeter, NDT Instruments, Jerusalem, Israel), as described by Garbuzenko et al.^39; and • (iv) structure, using scanning electron microscopy (SEM). Cartilage: Articular cartilage from healthy or osteoarthritis humans (aged 65 to 86 years) was obtained from femoral head fracture operations or total hip replacements. Tissue was classified as normal or pathological according to the visual diagnosis. For wear rate determination, only femoral heads with normal tissue were selected. Specimens were frozen at −20° C. until sample preparation in order to keep the mechanical properties close to those of live tissue. Pairs of cylindrical plugs, having 4 mm and 8 mm in diameter, each pair from the same region of the joint, were prepared. These cylindrical plugs, consisting of about 2 mm thick cartilage on top of about 8 mm long bone, were removed from the femoral head using a cork borer. The plugs were glued to holders through the bone part, using cyanoacrylate-based adhesive glue, leaving the cartilage projecting out of the holders. Thereafter, these plugs were refrozen at −20° C. until tested. Cartilage with completely intact and smooth surface was used. Friction and wear testing: Liposomes covering a wide range of sizes and concentrations, dispersed in HB, were screened as potential lubricants to reduce friction and wear between two discs of human cartilage at 24° C. and 37° C. […] For the a qualitative evaluation of wear, the effect of friction tests on the concentration of total PL in cartilage, and on the structure of the cartilage surface was determined. PL extraction and quantification: Total PL were extracted from cartilage specimens before and after lubrication tests, using the Bligh and Dyer extraction procedure^41, 42. […]

[4] = test system: joints of osteoarthritis patients; details: injection into joints of osteoarthritis patients; cited from earlier work
[5] = test system: human articular cartilage; experiment: Wear determination test (GAG content in wear debris); details: added to ISF 1:1; after run-in period; 60 N (4.8 MPa)
Description: • (i) phospholipid (PL) concentration, using the modified Bartlett assay^37, 38; • (ii) size distribution, for liposomes under 1 μm by dynamic light scattering using an ALV-NIBS High Performance Particle Sizer (Langen, Germany) at a scattering angle of 173°; and for liposomes above 400 nm by light diffraction using a Beckman Coulter LS Particle Size Analyzer 13-320 (Fullerton, Calif.), equipped with polarization intensity differential scattering (PIDS) to provide a dynamic detection range from 40 nm to 2000 μm; • (iii) partial specific adiabatic compressibility, by calculation from the density of the liposome dispersion (using a DMA 5000 density meter, Anton Paar, Graz, Austria) and the velocity of an 5 MHz ultrasonic wave traveling through it (using a UCC-12 ultrasonic velocimeter, NDT Instruments, Jerusalem, Israel), as described by Garbuzenko et al.^39; and • (iv) structure, using scanning electron microscopy (SEM). […] For the a qualitative evaluation of wear, the effect of friction tests on the concentration of total PL in cartilage, and on the structure of the cartilage surface was determined. PL extraction and quantification: Total PL were extracted from cartilage specimens before and after lubrication tests, using the Bligh and Dyer extraction procedure^41, 42. […]

| Molecule | SO-to-LD phase transition temperature, Tm [1] | Phase transition temperature (Tm) [1] | further results |
| --- | --- | --- | --- |
| CCCCCCCCCCCCCCC(=O)OC[C@H](COP(=O)([O-])OCC[N+](C)(C)C)OC(=O)CCCCCCCCCCCCCC [1,2-dipentadecanoyl-sn-glycero-3-phosphocoline] | 33.0 °C | – | – |
| CCCCCCCCCCCCCC(=O)OC[C@H](COP(=O)([O-])OCC[N+](C)(C)C)OC(=O)CCCCCCCCCCCCC [DMPC, 1,2-dimyristoyl-sn-glycero-3-phosphocholine] | 23.2 °C and 23 °C | 23.2 °C | water molecules per headgroup [2]: ~9.7 water molecules per headgroup; partial specific adiabatic compressibility, K ([3]; 24° C.): 46.4 ×10^−6 mL/(g-atm); partial specific adiabatic compressibility, K ([3]; 37° C.): 50.7 ×10^−6 mL/(g-atm) |
| CCCCCCCCCCCCCC(=O)OCC(COP(=O)(O)OCC(O)CO)OC(=O)CCCCCCCCCCCCC (stereo not drawn) [DMPG] | 23 °C | – | – |
| CCCCCCCC/C=C\CCCCCCCC(=O)OC[C@H](COP(=O)([O-])OCC[N+](C)(C)C)OC(=O)CCCCCCC/C=C\CCCCCCCC [DOPC, 1,2-dioleoyl-sn-glycero-3-phosphocholine] | – | −21 °C | – |
| CCCCCCCCCCCCCCCC(=O)OC[C@H](COP(=O)([O-])OCC[N+](C)(C)C)OC(=O)CCCCCCCCCCCCCCC [DPPC, 1,2-dipalmitoyl-sn-glycero-3-phosphocholine] | 41.4 °C | 41.4 °C | duration of mobility improvement [4]: up to 14 weeks; side effects [4]: without major side effects; water molecules per headgroup [2]: ~9.7 water molecules per headgroup; partial specific adiabatic compressibility, K ([3]; 24° C.): 28.0 ×10^−6 mL/(g-atm); partial specific adiabatic compressibility, K ([3]; 37° C.): 31.2 ×10^−6 mL/(g-atm) |
| CCCCCCCCCCCCCCCC(=O)OCC(COP(=O)(O)OCC(O)CO)OC(=O)CCCCCCCCCCCCCCC (stereo not drawn) [DPPG] | 41.4 °C | – | – |
| CCCCCCCCCCCCC/C=C/[C@@H](O)[C@H](COP(=O)([O-])OCC[N+](C)(C)C)NC(=O)CCCCCCCCCCCCCCC [N-palmitoyl SM] | 41.4 °C and 41.0 °C | – | – |
| hyaluronic acid [HA] | – | – | reduction of constant wear rate compared with ISF alone [5]: ~10% |
